Entries after “also recorded” stand apart in the source; their conditions may differ. Where no end group is shown, it is not given here.
Key:
[1] = tested on: proteolytic activity of P. gingivalis; type: cell-based, Porphyromonas gingivalis; conditions: intact cells pre-treated with inhibitor
Description: Inhibition of protease activity. The proteolytic activity of P. gingivalis was inhibited using a bacterial protease inhibitor cocktail (Sigma, St. Louis, Mo.) containing the following inhibitors: 4-(2-Aminoethyl)benzenesulfonyl fluoride hydrochloride (AEBSF), N-(trans-epoxysuccinyl)-L-leucine 4 guanidinobutylamide (E-64), sodium ethylenediaminetetra-acetate (EDTA), bestatin and pepstatin A. The inhibitor cocktail was suspended in dimethylsulfoxide (DMSO) (Sigma, St. Louis, Mo.) at the concentration recommended by the manufacturer.

[2] = tested on: P. gingivalis/S. gordonii biofilm; assay: Inhibition of P. gingivalis adherence and biofilm formation on S. gordonii (open flow cell, confocal microcolony count); type: cell-based, Porphyromonas gingivalis; conditions: for inhibition of biofilm formation: peptide 3.38 μM
Experimental: P. gingivalis adherence and biofilm formation. The adherence of intact P. gingivalis to S. gordonii cells and the subsequent formation of biofilms was carried out using an open flow system essentially as previously described by Amorin Daep et al. Infect Immun 74:5756-62 (2006) and Lamont et al. Microbiology 148:1627-36 (2002). The flow reactor comprised a Manostat Carter 4/8 cassette peristaltic pump (Fisher Scientific, Suwanee, Ga.) using 0.89 millimeter platinum-cured silicone tubing (Fisher Scientific, Suwanee, Ga.) and a BST FC 71 flow cell (Biosurface Technologies, Corp, Bozeman, Mont.). A single surface of a 15×40 mm cover glass (Fisher Scientific, Suwanee, Ga.) was coated with 0.22 μm filter sterilized saliva and incubated at 37° C. for 30 minutes. The saliva coated coverglass was then washed with sterile 1×PBS at a flow rate of 6 ml per hour for 30 minutes to remove unbound salivary constituents.
S. gordonii DL-1 cells were harvested by centrifugation at 4000 rpm at 4° C. for 15 minutes and suspended in 25 ml of sterile 1×PBS. S. gordonii cells were labeled with 20 μl of hexidium iodide (1.6 mg/ml, Molecular Probes, Eugene, Oreg.) at 25° C. for 30 minutes in the dark and washed with PBS. Adherence of streptococci to the saliva coated cover glass was carried out by delivering S. gordonii cells to the flow chamber at a flow rate of 6 ml per hour for approximately 2 hours. Following inoculation with S. gordonii, the flow cell was washed with sterile 1×PBS for 30 minutes at 6 ml per hour to remove non-adherent bacteria from the cover glass.
P. gingivalis ATCC 33277 cells were harvested by centrifugation at 4000 rpm at 4° C. for 45 minutes, suspended in 25 ml of sterile 1×PBS, and introduced into the flow cell at a flow rate of 6 ml per hour for 2 hours at 25° C. to allow P. gingivalis to adhere and accumulate on the streptococcal substrate. Flow cells were subsequently washed with sterile 1×PBS to remove non-adherent P. gingivalis cells. To visualize adherent P. gingivalis, rabbit anti-P. gingivalis 33277 polyclonal antibody diluted 3:5000 in 5 ml of sterile 1×PBS was flowed into the cell at a rate of 6 ml per hour. The flow cell was then washed with sterile 1×PBS for 1 hour, reacted with anti-rabbit IgG fluorescein isothiocyanate (FITC) conjugate (Sigma, St. Louis, Mo.) in sterile 1×PBS (1:5000) for 1 hour at 6 ml per hour, and received a final wash with sterile 1×PBS as above. Under these conditions, the streptococci bound to the saliva coated coverglass as a non-confluent layer comprising single cells and small aggregates. P. gingivalis subsequently adhered to and formed distinct microcolonies on the immobilized streptococci. The microcolonies were visualized and quantified by confocal microscopy as described below.
Confocal microscopy and analysis of P. gingivalis biofilms. P. gingivalis-S. gordonii biofilms were visualized using an Olympus FluoView 500 confocal laser scanning microscope (Olympus, Pittsburgh, Pa.) under 600× magnification using an Argon laser for visualization of FITC labeling and the HeNe-G laser to visualize hexidium iodide labeled streptococci. The number and depth of FITC-labeled P. gingivalis microcolonies was determined from 30 to 60 randomly chosen frames using the FluoView software package provided by Olympus. Microcolony depth was determined by performing Z-plane scans from 0 μm to 30 μm above the coverglass surface. P. gingivalis microcolonies that formed on S. gordonii in the absence of peptide inhibitor ranged from 7 to 16 μm in depth under the experimental conditions used.
Inhibition of P. gingivalis adherence and bioflim formation. […] The P. gingivalis-peptide suspension was then introduced into the flow cell for 2 hours at a flow rate of 6 ml per hour as described above and P. gingivalis microcolonies were analyzed by confocal microscopy. Data was analyzed using GraphPad InStat3 (GraphPad Software Co.).

[3] = tested on: proteases produced by P. gingivalis; assay: Proteolytic degradation of BAR by P. gingivalis cells, culture supernatant or extracts (tricine gel, densitometry); type: in vitro ADME, Porphyromonas gingivalis
Experimental: Proteolytic degradation of BAR by P. gingivalis. One milliliter of mid-exponential phase cultures of P. gingivalis SMF, P. gingivalis KDP128, P. gingivalis KDP129, or P. gingivalis E8 was centrifuged at 8000 rpm for 5 minutes at 4° C. The bacterial pellet was washed 3 times with 1 ml of sterile 1×PBS (100 mM sodium phosphate, pH 7.4, 150 mM NaCl). […] For some experiments, digital images of the stained gels were obtained using Epson Stylus CX3810 flatbed scanner (Espson America, Inc., Long Beach, Calif.) and analyzed by densitometry using ImageJ software (found on the world-wide-web at rsbweb.nih.gov/ij/).

[4] = tested on: P. gingivalis/S. gordonii biofilm; conditions: 0.3 μM
Experimental: P. gingivalis biofilm formation with S. gordonii. The formation of dual species P. gingivalis/S. gordonii biofilms was carried out essentially as previously described by Lamont et al (2002. Microbiology 148:1627-36.) and Daep et al. (Immun 74:5756-62 (2006); Infect Immun 76:3273-80 (2008)). The bacterial biofilms were cultured using a Manostat Carter 4/8 cassette peristaltic pump (Fisher Scientific, Suwanee, Ga.) with 0.89 millimeter platinum-cured silicone tubing (Fisher Scientific, Suwanee, Ga.) and BST FC 71 flow cells (Biosurface Technologies, Corp, Bozeman, Mont.). […]
P. gingivalis cells were harvested by centrifugation at 4000 rpm at 4° C. for 45 minutes, suspended in 20 ml of sterile 1×PBS, and introduced into the flow cell at a flow rate of 6 ml per hour for 2 hours to allow the bacteria to adhere and accumulate on the streptococcal substrate. […] P. gingivalis microcolonies bound to immobilized streptococci were quantified by confocal microscopy as described below.
The bacteria were incubated with 0 and 0.845 μM peptide at ambient temperature for 30 minutes and introduced into the flow cell containing an existing streptococcal substrate for 2 hours at a flow rate of 6 ml per hour. Biofilm formation was analyzed by confocal microscopy as described below. Data was analyzed using GraphPad InStat3 software (GraphPad Software Co.) using a non-parametric analysis of variance (ANOVA). […]

[5] = target: Mfa1 (Porphyromonas gingivalis, UniProt B2RHG1); conditions: read-out: dissociation constant of the BAR-Mfa1 interaction; previously calculated; cited from earlier work
[6] = Circular dichroism (CD) spectroscopy, K2D secondary structure estimate; type: physicochemical; conditions: 1.4 mM peptide in phosphate buffer
Experimental: Circular dichroism (CD) spectroscopy. CD experiments were carried out at 25° C. using Jasco J-810 spectropolarimeter (Jasco, Easton, Md.). A 40 μl sample of peptide at a concentration of 1.4 mM in filter sterilized 0.1 M phosphate buffer (pH=7.2) was analyzed in a 0.01 cm quartz cuvette (Starna Cells, Inc., Atascadero, Calif.) using the following parameters: sensitivity=100 mdeg, start wavelength=340 nm, end wavelength=180 nm, continuous scanning mode at 200 nm/minute, response=1 second, and bandwidth=1 nm. Nitrogen was flushed into the system at a rate of […] during each experiment. A total of 10 scans were accumulated and averaged and the appropriate blanks were subtracted from the spectra. The resulting spectra were expressed in molar ellipticity. Normalized CD data were analyzed using K2D software (on the world-wide web at embl-heidelberg.de/˜andrade/k2d.html)) to estimate α-helical, β-sheet, and random coil content.

Sequence of Mfa1 (B2RHG1 50-563): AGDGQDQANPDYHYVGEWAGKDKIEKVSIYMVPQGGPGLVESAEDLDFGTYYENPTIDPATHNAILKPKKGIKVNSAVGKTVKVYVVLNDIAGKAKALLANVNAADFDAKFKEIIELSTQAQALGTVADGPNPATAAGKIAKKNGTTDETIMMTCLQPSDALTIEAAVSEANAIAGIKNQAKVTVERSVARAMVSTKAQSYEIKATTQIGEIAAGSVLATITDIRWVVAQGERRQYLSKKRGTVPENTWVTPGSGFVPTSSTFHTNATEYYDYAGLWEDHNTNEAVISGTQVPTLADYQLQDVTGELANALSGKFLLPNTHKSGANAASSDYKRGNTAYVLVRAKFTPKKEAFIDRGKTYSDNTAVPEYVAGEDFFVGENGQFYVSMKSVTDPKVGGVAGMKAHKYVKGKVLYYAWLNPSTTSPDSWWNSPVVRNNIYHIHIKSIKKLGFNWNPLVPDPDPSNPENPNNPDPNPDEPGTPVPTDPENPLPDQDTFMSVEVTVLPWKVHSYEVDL

CC(C)C[C@H](NC(=O)[C@H]1O[C@@H]1C(=O)O)C(=O)NCCCCN=C(N)N (relative stereo) [E-64, N-(trans-epoxysuccinyl)-L-leucine 4 guanidinobutylamide]
concentrations that prevent cleavage of BAR by P. gingivalis (in words) [1]: mM range

Cl.NCCc1ccc(S(=O)(=O)F)cc1 [AEBSF, 4-(2-Aminoethyl)benzenesulfonyl fluoride hydrochloride]
concentrations that prevent cleavage of BAR by P. gingivalis (in words) [1]: mM range

O=C([O-])CN(CCN(CC(=O)[O-])CC(=O)[O-])CC(=O)[O-].[Na+].[Na+].[Na+].[Na+] [EDTA, sodium ethylenediaminetetra-acetate]
concentrations that prevent cleavage of BAR by P. gingivalis (in words) [1]: mM range

CC(C)C[C@H](NC(=O)[C@@H](O)[C@H](N)Cc1ccccc1)C(=O)O [bestatin]
concentrations that prevent cleavage of BAR by P. gingivalis (in words) [1]: mM range

LEAAPKKVPGLLKKANITVKGAFQLFS [BAR-X]
inhibition of biofilm formation [2]: ~15%

LEAAPKKVQDLLKKANITVKGAFQLFS [BAR]
inhibition of P. gingivalis microcolony formation ([2]; peptide 0.34 μM): 3% | inhibition of P. gingivalis microcolony formation ([2]; peptide 0.85 μM): 7% | inhibition rate of P. gingivalis/S. gordonii biofilm formation ([2]; peptide 1.7 μM): 80% | inhibition of biofilm formation [2]: ~75% | degradation by P. gingivalis 33277 (in words) ([3]; 5 μg BAR, wild type cells): immediate degradation | degradation by P. gingivalis culture supernatant (in words) ([3]; 5 μg peptide, 37° C., 0 to 60 minutes): more slowly degraded; also recorded: time dependent degradation | proteolytic cleavage by P. gingivalis culture extracts (in words) ([3]; 1 hour incubation, 10-20% Tris-Tricine gel): slowly degraded | relative density (R.D.) of remaining BAR peptide ([3]; E8 whole cells, within 5 minutes (first value of 'R.D.=32.5 vs. 21.6')): 32.5 | relative density (R.D.) of remaining BAR peptide ([3]; P. gingivalis SMF1 with rMfa1, T=5 minutes, loading control R.D.=61.07): 47.3 | relative density (R.D.) of remaining BAR peptide ([3]; P. gingivalis SMF1 with rMfa1, T=30 minutes, loading control R.D.=61.07): 8.2 | relative density (R.D.) of remaining BAR peptide ([3]; P. gingivalis SMF1 without rMfa1, T=5 minutes, loading control R.D.=61.07): −5.75 | relative density (R.D.) of remaining BAR peptide ([3]; P. gingivalis SMF1 without rMfa1, T=30 minutes, loading control R.D.=61.07): −20.32 | relative density (R.D.) of remaining BAR peptide ([3]; gingipain deficient P. gingivalis KDP128, T=5 minutes, loading control R.D.=115.85): 96.23 | relative density (R.D.) of remaining BAR peptide ([3]; gingipain deficient P. gingivalis KDP128, T=10 minutes, loading control R.D.=115.85): 115.85 | degradation by P. gingivalis E8 (lacks Arg-X gingipains), in words ([3]; intact cells): rapidly degraded; also recorded: immediate degradation | degradation by P. gingivalis KDP128 (lacks Lys-X and Arg-X gingipains), in words ([3]; intact cells): Little degradation was observed after incubation for 10 minutes; also recorded: attenuated proteolytic activity against the peptide | degradation by P. gingivalis KDP129 (lacks Lys-X gingipains), in words ([3]; intact cells): attenuated degradation; also recorded: Little degradation was observed | degradation by intact P. gingivalis cells in the presence of purified Mfa1 (in words) ([3]; pre-incubation with Mfa1): little degradation occurred after 5 minutes; also recorded: protection from proteolytic degradation | relative density (R.D.) of remaining BAR peptide, comparator ([3]; second value of 'R.D.=32.5 vs. 21.6', apparently wild type 33277, 5 minutes): 21.6 | inhibitory activity on biofilm formation [4]: ~50% | Kd [5]: ~900 nM

LEAAPKKVQDLLKKARITIKGAFQLFS [BAR-II]
biofilm inhibitory activity (in words) [2]: more potent inhibitor of P. gingivalis adherence and biofilm development than BAR | fold difference in I50 / potency relative to BAR ([2]; I50 0.52 μM versus 1.25 μM): approximately 2.5 fold | IC50 ([2]; P. gingivalis pre-incubated with peptide, streptococcal substrate, read-out: I50 for inhibition of P. gingivalis adherence and biofilm formation): 520 nM | inhibition of P. gingivalis microcolony formation ([2]; peptide 0.34 μM): 25% | inhibition of P. gingivalis microcolony formation ([2]; peptide 0.85 μM): 82% | α-helix content [6]: 28%

LQAAPKKVQDLLKKANITVKGAFQLFS [BAR-XIV]
inhibitory activity compared to BAR (in words) ([2]; peptide 1.7 μM): significant decrease in inhibitory activity | restoration of inhibitory activity (in words) ([2]; peptide 17 μM): did not show partial or full restoration

From US8142764B2, “Synthetic biofilm-inhibiting peptides” (priority 2008, dated 2012)
